The values that follow come from patent US20250034182A1, “PHOSPHOLIPID COMPOUNDS AND METHODS OF MAKING AND USING THE SAME” (priority 2021, published 2025).

Format in all cases: cell-based
For series [1], the system named is Respiratory syncytial virus recombinant with luciferase (RSV-Luc5) in NHBE cells. The experiment in a line: NHBE RSV-Luc5 384-well assay (EC50 RSVFLUC NHBE-384, Example U). To be noted: human respiratory syncytial virus, 72 h, read-out: RSV FLuc NHBE 384 EC50 (v2) (nM) (per Ex. U). The gist of the method: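 Passage-2 NHBE cells (5,000/well) on pre-spotted compounds, 10-point 1:3 series, infected with RSV-Luc5 at MOI 1 and incubated 3 days at 37° C. Replication read by One-Glo luminescence, normalized to remdesivir (0%) and DMSO (100%); EC50 = concentration reducing replication by 50%, by non-linear regression.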

For series [2], the system named is Human Rhinovirus 1B (HRV1B) in H1-HeLa cells. Nature of the series: H1-HeLa HRV-CTG EC50, HRV1B (Example Z). The settings on record: Rhinovirus A, 96 h, MOI 0.5, 4 days, Celltiter-Glo, read-out: HRV 1B HELA EC50 (nM) (per Ex. Z). The gist of the method: (§1)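 H1-HeLa cells (5,000/well) in DMEM with 2% FBS were infected with HRV1B, HRV14 or HRV16 at MOI 0.5, 1.0 and 0.25, respectively, with 10-point 1:3 compound dilutions. After 4 days at 37 °C, viability was read by CellTiter-Glo luminescence. EC50 was the concentration reducing viral replication by 50%, normalized to rupintrivir and DMSO controls.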
For orientation: In ATP-based viability assays light output follows the ATP content of the culture.

Series [3] in a line: RSV HEP2-CC50-384-V2 (per Ex. V). To be noted: human.
Series [4] can be described thus: RSV NHBE CC50 384 V2 (per Ex. U). To be noted: human.
Series [5] relates to Human Rhinovirus 14 (HRV14) in H1-HeLa cells. Nature of the series: H1-HeLa HRV-CTG EC50, HRV14 (Example Z). The settings on record: Rhinovirus B, HRV14, 96 h, MOI 1.0, 4 days, Celltiter-Glo, read-out: HRV14 HELA EC50 (nM) (per Ex. Z). The gist of the method:
as §1

As a reminder, the EC50 is the midpoint of the concentration-response curve. What is called CC50 is the concentration giving 50% cytotoxicity. Lower therefore signals harm at low concentration. For `CCCCCCCCCCCCCCCCC[C@@H](COP(=O)(O)OC[C@@]1(C#N)O[C@@H](c2ccc3c(N)ncnn23)[C@H](O)[C@@H]1O)OCc1cc(F)cc(C#N)c1` [Compound 74, ((2R,3S,4R)-5-(4-aminopyrrolo[2,1-f][1,2,4]triazin-7-yl)-2-cyano-3,4-dihydroxytetrahydrofuran-2-yl)methyl ((S)-2-((3-cyano-5-fluorobenzyl)oxy)nonadecyl) hydrogen phosphate], the EC50 was 85 nM in series [1], 24 nM in series [2] and 67 nM in series [5]. In addition, the CC50 at 3 days came out at 28000 nM in series [3] and 1540 nM in series [4].

As for `CCCCCCCCCCCCCCOC[C@H](COP(=O)(O)OC[C@@]1(C#N)O[C@@H](c2ccc3c(N)ncnn23)[C@H](O)[C@@H]1O)OCc1ccc(C#N)cc1F` [Compound 75, ((2R,3S,4R,5S)-5-(4-aminopyrrolo[2,1-f][1,2,4]triazin-7-yl)-2-cyano-3,4-dihydroxytetrahydrofuran-2-yl)methyl ((R)-2-((4-cyano-2-fluorobenzyl)oxy)-3-(tetradecyloxy)propyl) hydrogen phosphate], the figures for the EC50 in series [1], in series [2] and in series [5] were 12 nM, 23 nM and 37 nM, respectively. Also, the results for the CC50 at 3 days in series [3] and in series [4] were above 48500 nM and 4620 nM, respectively.

Turning to `CCCCCCCCCCCCCCCC[C@H](COP(=O)(O)OC[C@@]1(C#N)O[C@@H](c2ccc3c(N)ncnn23)[C@H](O)[C@@H]1O)OCc1cc(F)cc(C#N)c1` [Compound 78, ((2R,3S,4R,5S)-5-(4-aminopyrrolo[2,1-f][1,2,4]triazin-7-yl)-2-cyano-3,4-dihydroxytetrahydrofuran-2-yl)methyl ((R)-2-((3-cyano-5-fluorobenzyl)oxy)octadecyl) hydrogen phosphate], the EC50 turned out to be 31 nM in series [1], 24 nM in series [2] and 38 nM in series [5]. For the same compound, the CC50 at 3 days in series [3] was found to be 34600 nM; in series [4], 1200 nM.

`CCCCCCCCCCCCCCCC[C@@H](COP(=O)(O)OC[C@@]1(C#N)O[C@@H](c2ccc3c(N)ncnn23)[C@H](O)[C@@H]1O)OCc1cc(F)cc(C#N)c1` [Compound 79, ((2R,3S,4R,5S)-5-(4-aminopyrrolo[2,1-f][1,2,4]triazin-7-yl)-2-cyano-3,4-dihydroxytetrahydrofuran-2-yl)methyl ((S)-2-((3-cyano-5-fluorobenzyl)oxy)octadecyl) hydrogen phosphate]: the EC50 was 19 nM in series [1], 25 nM in series [2] and 38 nM in series [5]. The CC50 at 3 days is 38100 nM in series [3] and 2100 nM in series [4].

As for `CCCCCCCCCCCCCCC[C@H](COP(=O)(O)OC[C@@]1(C#N)O[C@@H](c2ccc3c(N)ncnn23)[C@H](O)[C@@H]1O)OCc1cc(F)cc(C#N)c1` [Compound 80, ((2R,3S,4R,5S)-5-(4-aminopyrrolo[2,1-f][1,2,4]triazin-7-yl)-2-cyano-3,4-dihydroxytetrahydrofuran-2-yl)methyl ((R)-2-((3-cyano-5-fluorobenzyl)oxy)heptadecyl) hydrogen phosphate], the EC50 in series [1] amounted to 36 nM; in series [2] it was 49 nM; in series [5] it was 88 nM. For the same compound, the CC50 at 3 days is above 50000 nM in series [3] and 2170 nM in series [4].
